The test system of data set [1] is COLO 205. Kind of data set: Antiproliferative activity against human COLO 205 cells assessed as cell growth inhibition measured after 4 to 6 days by celltiter-glo luminescent cell viability assay. It counts as functional, cell-based. For orientation: In ATP-based viability assays light output follows the ATP content of the culture.
The subject of a further data set is U-87 MG. Kind of data set: Antiproliferative activity against human U-87 MG cells assessed as cell growth inhibition measured after 4 to 6 days by celltiter-glo luminescent cell viability assay. It counts as functional, cell-based, U-87MG ATCC.
A further data set addresses CYP3A4 (Homo sapiens, UniProt P08684). The experiment in a line: Inhibition of CYP3A4 in human liver microsomes at 10 uM measured after 20 mins in presence of NADPH by LC-MS/MS analysis relative to control. It counts as ADME. For orientation: Liver microsomes are a subcellular fraction often used to study metabolism.
Another data set concerns the target Cytochrome P450 2D6 (Homo sapiens, UniProt P10635). The experiment in a line: Time-dependent inhibition of CYP2D6 in human liver microsomes at 10 uM in presence of NADPH by LC-MS/MS analysis. It counts as ADME.
A short description of data set [2]: Half life in BALB/c mouse at 3 mg/kg, iv by LC-MS/MS analysis. As to conditions: in vivo. In kind it is ADME, organism-based.
Data set [3] can be described thus: Volume of distribution at steady state in BALB/c mouse at 3 mg/kg, iv by LC-MS/MS analysis. It counts as ADME, organism-based. The settings on record: in vivo, read-out: Vdss.
Data set [4] is described as follows: Cmax in BALB/c mouse at 10 mg/kg, po by LC-MS/MS analysis. As to conditions: in vivo. In kind it is ADME, organism-based. Details: route oral, dose 10 mg/kg.
Data set [5] can be described thus: Half life in BALB/c mouse at 10 mg/kg, po by LC-MS/MS analysis. The settings on record: in vivo. It counts as ADME, organism-based.
Data set [6] in a line: Half life in Sprague-Dawley rat at 3 mg/kg, iv by LC-MS/MS analysis. It counts as ADME, organism-based. As to conditions: in vivo.
Data set [7] can be described thus: AUC (0 to t) in Sprague-Dawley rat at 6 mg/kg, po by LC-MS/MS analysis. In kind it is ADME, organism-based. Further details: dose 6 mg/kg. The settings on record: in vivo.
Data set [8] can be described thus: Half life in Sprague-Dawley rat at 6 mg/kg, po by LC-MS/MS analysis. The settings on record: in vivo. It counts as ADME, organism-based.
The test system of data set [9] is COLO 205. The experiment in a line: Antitumor activity against human COLO 205 cells xenografted in po dosed BALB/c mouse assessed as tumor growth inhibition administered once daily or every three days for 11 days. In kind it is functional, organism-based. As to conditions: time 11.0 day. Background: In xenograft studies the graft and the host belong to different species.

The test system of data set [10] is COLO 205. Kind of data set: Antitumor activity against human COLO 205 cells xenografted in BALB/c mouse assessed as tumor growth inhibition at 3 mg/kg, po qd for 11 days relative to control. The settings on record: COLO 205, po, time 11 day, read-out: TGI. It counts as functional.
Data set [11] deals with COLO 205. The experiment in a line: Antitumor activity against human COLO 205 cells xenografted in BALB/c mouse assessed as tumor growth inhibition at 30 mg/kg, po q3d for 11 days relative to control. In kind it is functional. As to conditions: COLO 205, po, time 11 day, read-out: TGI.
Data set [12] relates to COLO 205. The experiment in a line: Antitumor activity against human COLO 205 cells xenografted in BALB/c mouse assessed as reduction in tumor volume at 30 mg/kg, po q3d for 11 days measured post last dose by caliper method. In kind it is functional, organism-based. As to conditions: time 11.0 day.
The test system of data set [13] is COLO 205. The experiment in a line: Antitumor activity against human COLO 205 cells xenografted in BALB/c mouse assessed as tumor growth at 3 mg/kg, po qd for 11 days measured post last dose relative to control. In kind it is functional. The settings on record: time 11 day.
Data set [14] is described as follows: Toxicity in human U-87 MG cells xenografted BALB/c mouse assessed as body weight loss at 10 mg/kg, po qd for 16 days relative to control. It counts as organism-based. As to conditions: in vivo, 384 h, time 16 day.
Data set [15] can be described thus: Toxicity in human COLO 205 cells xenografted BALB/c mouse assessed as body weight loss at 30 mg/kg, po q3d for 11 days relative to control. In kind it is organism-based. As to conditions: in vivo, time 11 day.
Data set [16] addresses Cyclin-dependent kinase 7/ cyclin H (Homo sapiens, UniProt P50613). The experiment in a line: Inhibition of CDK7/cyclin H (unknown origin). In kind it is protein-complex assay.

Active and inactive are the calls of the source. The calls are words filed in the database; no cut-off is given here.

Sequence of Cyclin-dependent kinase 7/ cyclin H (P51946 whole entry): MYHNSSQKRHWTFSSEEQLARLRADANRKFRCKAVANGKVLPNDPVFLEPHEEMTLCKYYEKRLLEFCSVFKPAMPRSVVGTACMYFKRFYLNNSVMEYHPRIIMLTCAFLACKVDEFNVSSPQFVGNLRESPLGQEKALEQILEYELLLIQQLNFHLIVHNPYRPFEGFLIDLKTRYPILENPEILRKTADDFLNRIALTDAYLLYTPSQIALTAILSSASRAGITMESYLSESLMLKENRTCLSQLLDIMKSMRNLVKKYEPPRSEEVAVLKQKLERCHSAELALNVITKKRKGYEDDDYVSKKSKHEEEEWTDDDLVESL
Sequence of Cyclin-dependent kinase 7/ cyclin H (P50613 whole entry): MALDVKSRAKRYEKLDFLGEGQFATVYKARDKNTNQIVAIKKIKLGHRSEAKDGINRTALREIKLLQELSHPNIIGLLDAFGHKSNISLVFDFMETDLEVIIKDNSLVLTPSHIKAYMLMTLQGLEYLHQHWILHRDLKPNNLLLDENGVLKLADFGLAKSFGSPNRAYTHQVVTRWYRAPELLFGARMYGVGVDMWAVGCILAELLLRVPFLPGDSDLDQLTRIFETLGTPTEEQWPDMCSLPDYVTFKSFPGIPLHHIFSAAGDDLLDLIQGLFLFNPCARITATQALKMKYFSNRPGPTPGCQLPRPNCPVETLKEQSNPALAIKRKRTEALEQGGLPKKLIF
Sequence of CYP3A4 (P08684 whole entry): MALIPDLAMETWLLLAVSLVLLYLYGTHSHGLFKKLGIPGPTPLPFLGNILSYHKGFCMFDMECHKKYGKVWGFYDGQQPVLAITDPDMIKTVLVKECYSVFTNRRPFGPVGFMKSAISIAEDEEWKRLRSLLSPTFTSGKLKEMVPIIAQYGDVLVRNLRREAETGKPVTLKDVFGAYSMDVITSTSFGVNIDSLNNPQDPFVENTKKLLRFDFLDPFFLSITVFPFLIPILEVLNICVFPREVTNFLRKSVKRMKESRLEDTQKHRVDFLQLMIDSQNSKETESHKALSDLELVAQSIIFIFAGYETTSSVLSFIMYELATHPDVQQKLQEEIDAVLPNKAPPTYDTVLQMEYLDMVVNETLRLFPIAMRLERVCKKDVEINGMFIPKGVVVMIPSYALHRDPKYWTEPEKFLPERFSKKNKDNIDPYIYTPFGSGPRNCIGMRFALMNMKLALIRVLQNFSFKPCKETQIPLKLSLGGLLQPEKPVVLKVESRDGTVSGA
Sequence of Cytochrome P450 2D6 (P10635 whole entry): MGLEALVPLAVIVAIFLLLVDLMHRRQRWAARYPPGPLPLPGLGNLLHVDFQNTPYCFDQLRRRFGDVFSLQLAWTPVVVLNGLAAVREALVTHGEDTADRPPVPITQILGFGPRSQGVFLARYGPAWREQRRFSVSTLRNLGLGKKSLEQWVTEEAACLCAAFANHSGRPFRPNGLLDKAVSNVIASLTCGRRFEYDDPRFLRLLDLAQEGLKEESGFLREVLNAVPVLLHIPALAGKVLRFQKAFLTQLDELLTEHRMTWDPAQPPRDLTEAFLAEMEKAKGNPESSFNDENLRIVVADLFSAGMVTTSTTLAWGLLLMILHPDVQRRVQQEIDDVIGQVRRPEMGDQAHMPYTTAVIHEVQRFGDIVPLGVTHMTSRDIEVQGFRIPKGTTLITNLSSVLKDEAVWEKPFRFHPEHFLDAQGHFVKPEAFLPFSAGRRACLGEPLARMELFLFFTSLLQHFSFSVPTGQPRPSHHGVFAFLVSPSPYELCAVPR

Usually IC50 stands for the midpoint of a concentration-inhibition curve. What is called inhibition is the relative decrease from the control value, in per cent. By half-life is commonly meant how long it takes for the measured level to halve. One may read the Cmax as the maximum level reached in the sampled fluid or tissue. Broadly, the AUC(0-t) is exposure summed from dosing to a finite time, without extrapolation to infinity. Higher therefore signals more exposure. Usually T/C stands for the ratio of treated to control. In the case of `CC(=O)c1c(C)c2cnc(Nc3ccc(N4CCNCC4)cc3)nc2n2cc(C(C)C)nc12`, the IC50 with COLO 205 [1] was 56.4 nM; in the data set with U-87 MG, 84.6 nM; in data set [16], 94.7 nM. Also, the inhibition at […], 10 µM on CYP3A4 is 8%. The TDI entry at Cytochrome P450 2D6 is “Not Active”. Moreover, the half-life in data set [2] was 6.17 h; in [5], 4.08 h; in data set [6] it was 3.25 h; in data set [8] it was 4.96 h. The Vd in [3] was 46.5 L/kg. Further, in data set [4], the Cmax is 90 ng/mL. In data set [7], this molecule had an AUC(0-t) of 1120 ng·h/mL. Besides, the TGI entry in the data set on COLO 205 [9] is “Dose-dependent effect”. For the same molecule, the inhibition in vivo at 3 mg/kg in the data set with COLO 205 [10] came out at 63%. Further, the inhibition in vivo at 30 mg/kg in the data set with COLO 205 [11] was 85%. For the same molecule, the outcome in the data set on COLO 205 [12] was Active. Moreover, the T/C in the data set with COLO 205 [13] was found to be 33%. For the same molecule, the Activity in data set [14] and in [15] was below 20% in each case.

The record behind these values is ChEMBL document CHEMBL4765279, “Discovery of a novel series of imidazo[1',2':1,6]pyrido[2,3-d]pyrimidin derivatives as potent cyclin-dependent kinase 4/6 inhibitors” (Eur J Med Chem, 2020).
